Test results from publication PMC4905667, “Discovery of Small-Molecule Modulators of the Human Y4 Receptor” (PLoS ONE, 2016).
Read-outs that look alike come from different tables or passages of the source. No end group written: not given here.

What was measured:
human Y4R = biological target: T1, human Y4R (Homo sapiens, UniProt P50391); test: Inositol phosphate (IP3) accumulation assay, Y4R stimulated with PP; assay type: cell-based; details: for IP accumulation following stimulation of Y4R (DMSO set to 100%): 10 μM compound, 1 nM PP, COS-7 cells with Δ6Gαqi4myr, mean ± SEM, n = 2; for Effect of compound on potency (pEC50) of PP at Y4R (in words): 30 μM compound vs DMSO, full PP concentration-response; for EC50 / Y4R PAM activity, potentiation of a PP EC20 response (in words): IP accumulation; for EC50: three independent experiments in duplicate; for Y4R PAM activity, potentiation of a PP EC20 response (in words): concentration-dependent
T1 construct: expressed in transfected cells
Experimental: (§1) COS-7 cells stably expressing hY1/2/4/5R_eYFP fusion protein and the Δ6Gαqi4myr chimeric Gα-protein were prepared as previously described. The hY1/2/4/5R_eYFP cDNA was subcloned into MCS1 of a pVitro2-MCS vector carrying a hygromycin resistance gene; the Δ6Gαqi4myr cDNA was subcloned into MCS1 of a pVitro2-MCS vector carrying a G418 resistance gene (Invivogen, San Diego, CA).
(§2) COS-7 (African Green Monkey kidney) cells stably expressing the hY1/2/4/5R_eYFP fusion protein and the Δ6Gαqi4myr chimeric Gα-protein were cultured at 37°C in high glucose Dulbecco’s Modified Eagle Medium (DMEM, Life Technologies, Carlsbad, CA) with glutamine and sodium pyruvate (Life Technologies/Lonza) supplemented with 10% (w/v) FBS (Invitrogen, Carlsbad, CA), 1.5 mg/mL G418-sulfate (Amresco, Solon, OH) and 133 μg/ml hygromycin (Invivogen).
(§3) Cells were seeded into 48-well plates and incubated for 24 hours at 37°C / 5% CO2. Afterwards, cells were labeled for at least 16 hours in DMEM+10% (w/v) FBS containing 2 μCi/ml myo-[2- ^3H(N)]-inositol (PerkinElmer) at 37°C / 5% CO2. Labeling solution was aspirated and cells were washed with 20 μL/well DMEM + 10 mM LiCl (Sigma-Aldrich; DMEM/LiCl) and stimulated with the peptide solutions and compounds. Specifically, 50 μl/well DMEM/LiCl were added after washing, followed by addition of 50 μl/well test compound in DMEM/LiCl (3-fold over the final concentration) and addition of 50 μl/well peptide solution (3-fold over the final concentration) in DMEM/LiCl. Stimulation was performed for 2 hours at 37°C / 5% CO2. Cell lysis, subsequent sample preparation and radiometric detection was performed as described previously.
(§4) Data analysis was performed with GraphPad Prism 5.03 software (GraphPad Software, San Diego, CA). Calculation of EC50 and pEC50 was performed using standard non-linear regression (log(agonist) vs. response, three parameters). All data were normalized to the corresponding control curve in the absence of the modulator. Final concentration response curves were created by calculating the mean and SEM of all individual experiments for each data point. Statistical evaluation was performed using two-way ANOVA and Bonferroni post test with * P ≤ 0.05, ** P ≤ 0.01, *** P ≤ 0.001.
(§5) Until now, no small molecule agonists of Y receptors have been described. Based on this lack of any structure activity data, identification of Y4R PAMs was initiated with a Ca^2+-flux-based HTS approach. An initial pilot screen was performed with the ‘Spectrum collection’, a small scale library with 2000 compounds comprising synthetic small molecules as well as purified natural products covering a range of known biologically active properties. This pilot screen yielded 65 putative PAMs. All initial hits were retested for off-target effects in wildtype COS-7 cells and the PAM effect was validated via concentration-dependent potentiation of a submaximal PP response. After eliminating structures that show off-target effects, seven compounds with potencies in the micromolar range were identified (S1 Fig) for further investigation. Validation of the Y4R PAM activity was performed with a well-established assay system for Y receptor activation studies, based on cellular accumulation of inositol phosphate. Furthermore, the compound activity at Y1R, Y2R and Y5R was examined at this stage of Y4R PAM identification. Therefore, Y receptor activation with an agonist ligand concentration causing a submaximal response (1 nM, Fig 1) was monitored in presence and absence of test compound. This experimental setup allows the detection of potential compound-induced shifts of the concentration-response curve and parallel testing of all compounds on all Y receptor subtypes. […]

human Y1R = test system: T2, human Y1R; test: Inositol phosphate (IP3) accumulation assay, Y1R stimulated with NPY; assay type: cell-based; details: for Effect of compound on potency (pEC50) of NPY at Y1R (in words): 30 μM compound vs DMSO, full NPY concentration-response
T2 construct: expressed in transfected cells
Experimental: as §1, §2, §3, §4, §5

human Y2R = test system: T3, human Y2R; test: Inositol phosphate (IP3) accumulation assay, Y2R stimulated with NPY; assay type: cell-based; details: for Effect of compound on potency (pEC50) of NPY at Y2R (in words): 30 μM compound vs DMSO, full NPY concentration-response
T3 construct: expressed in transfected cells
Experimental: as §1, §2, §3, §4, §5

human Y5R = test system: T4, human Y5R; test: Inositol phosphate (IP3) accumulation assay, Y5R stimulated with NPY; assay type: cell-based; details: for Effect of compound on potency (pEC50) of NPY at Y5R (in words): 30 μM compound vs DMSO, full NPY concentration-response
T4 construct: expressed in transfected cells
Experimental: as §1, §2, §3, §4
as §5, with “Furthermore, the compound activity at Y1R, Y2R and Y5R was examined at this stage of Y4R PAM identification.” left out, “compound.” for “compound. This experimental setup allows the detection of potential compound-induced shifts of the concentration-response curve and parallel testing of all compounds on all Y receptor subtypes.”

[1] = HPLC analysis of stability in DMEM assay conditions; assay type: physicochemical; details: pre-incubated in DMEM for 2 hours at 37°C
Experimental: Supplementary file pone.0157146.s003.png: S3 Fig HPLC analysis of VU0118748 stability in DMEM assay conditions. […] To test the stability of VU0118748 in the assay conditions, the compound was pre-incubated in DMEM for 2 hours at 37°C. […] (PNG) Click here for additional data file.

[2] = test system: db/db mice and high fat diet induced obesity in mice; design: method as in PMID 25282357; details: fed to mice, high nanomolar blood concentrations; cited from earlier work
Y4R = test system: T5, Y4R; test: HTS calcium flux assay; assay type: cell-based, human; details: Ca2+ flux, COS-7 hY4R_eYFP Δ6Gαqi4myr
T5 construct: expressed in transfected cells
Experimental: as §1, §2
The purities of compounds in the Vanderbilt HTS facility are more than 95% as confirmed by the supplier. A total of 35,288 compounds were tested for their ability to modulate the Y4R activation in conjunction with the Vanderbilt HTS facility. In a pilot HTS experiment, 2000 compounds (spectrum collection, MicroSource Discovery Systems, Inc., Gaylordsville, CT) were screened for modulation of the Y4R. […]

[3] = read-out: EC50, potentiation of a PP EC20 response at Y4R
[4] = 10 μM compound, 1 nM NPY, mean ± SEM, n = 2
[5] = read-out: pEC50 ± SEM, potentiation of a PP EC20 response at Y4R (converted)

T1 sequence (P50391 whole entry): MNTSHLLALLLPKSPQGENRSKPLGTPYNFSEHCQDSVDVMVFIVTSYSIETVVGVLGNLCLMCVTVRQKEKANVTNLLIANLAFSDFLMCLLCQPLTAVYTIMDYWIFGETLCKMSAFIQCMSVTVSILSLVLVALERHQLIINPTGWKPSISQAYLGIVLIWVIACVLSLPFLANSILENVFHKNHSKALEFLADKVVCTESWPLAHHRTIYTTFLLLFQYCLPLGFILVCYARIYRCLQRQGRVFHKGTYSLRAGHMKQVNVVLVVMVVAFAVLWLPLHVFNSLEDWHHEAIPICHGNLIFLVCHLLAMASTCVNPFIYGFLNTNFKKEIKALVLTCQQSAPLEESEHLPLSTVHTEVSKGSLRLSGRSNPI

O=C(Nc1ccc([N+](=O)[O-])cc1Cl)c1cc(Cl)ccc1O [Niclosamide, reference compound]
IP accumulation following stimulation of Y4R (DMSO set to 100%) (human Y4R): 185.7 ± 23.5%
Effect of compound on potency (pEC50) of PP at Y4R (in words) (human Y4R): increase the potency of PP
EC50 (human Y4R; [3]): 620 nM
Increase in the potency of PP at Y4R (EC50 shift) (human Y4R; in presence of compound): 4 fold
IP accumulation following stimulation of Y1R (DMSO set to 100%) (human Y1R; [4]): 125.4 ± 14.6%
Effect of compound on potency (pEC50) of NPY at Y1R (in words) (human Y1R): small PAM effect
IP accumulation following stimulation of Y2R (DMSO set to 100%) (human Y2R; [4]): 88.5 ± 6.2%
Effect of compound on potency (pEC50) of NPY at Y2R (in words) (human Y2R): no effect
IP accumulation following stimulation of Y5R (DMSO set to 100%) (human Y5R; [4]): 83.4 ± 5.9%
Effect of compound on potency (pEC50) of NPY at Y5R (in words) (human Y5R): negative allosteric effect

O=C(Nc1ccc([N+](=O)[O-])cc1)c1cc(Br)ccc1O [VU0048913]
Effect of compound on potency (pEC50) of PP at Y4R (in words) (human Y4R): increase the potency of PP
EC50 (human Y4R; [3]): 566 nM
EC50 (human Y4R; [5]): 575 nM
Effect of compound on potency (pEC50) of NPY at Y1R (in words) (human Y1R): no effect
Effect of compound on potency (pEC50) of NPY at Y2R (in words) (human Y2R): slight PAM effect

Cc1ccc(NC(=O)c2cc([N+](=O)[O-])ccc2O)cc1 [VU0048992]
Effect of compound on potency (pEC50) of PP at Y4R (in words) (human Y4R): increase the potency of PP
EC50 (human Y4R; [3]): > 10000 nM
Effect of compound on potency (pEC50) of NPY at Y1R (in words) (human Y1R): no effect
Effect of compound on potency (pEC50) of NPY at Y2R (in words) (human Y2R): slight PAM effect

O=C(Nc1ccc(Cl)cc1)c1cc([N+](=O)[O-])ccc1O [VU0049150]
Effect of compound on potency (pEC50) of PP at Y4R (in words) (human Y4R): increase the potency of PP
EC50 (human Y4R; [3]): > 10000 nM
Effect of compound on potency (pEC50) of NPY at Y1R (in words) (human Y1R): no effect

O=C(Nc1cc(C(F)(F)F)ccc1Cl)c1ccc(F)c([N+](=O)[O-])c1 [VU0114795]
Y4R PAM activity, potentiation of a PP EC20 response (in words) (human Y4R): inactive
Effect of compound on potency (pEC50) of NPY at Y2R (in words) (human Y2R): slight PAM effect

O=C(Oc1ccc(Cl)cc1C(=O)Nc1ccc([N+](=O)[O-])cc1Cl)c1ccc([N+](=O)[O-])cc1 [VU0118748]
Effect of compound on potency (pEC50) of PP at Y4R (in words) (human Y4R): increase the potency of PP
EC50 (human Y4R; [3]): 473 nM
EC50 (human Y4R; [5]): 437 nM
Effect of compound on potency (pEC50) of NPY at Y1R (in words) (human Y1R): no effect
Effect of compound on potency (pEC50) of NPY at Y5R (in words) (human Y5R): negative allosteric effect
Compound still intact [1]: 95%

COc1ccc(/C=C/C(=O)c2ccc(O)cc2O)cc1OC [VU0244224]
IP accumulation following stimulation of Y4R (DMSO set to 100%) (human Y4R): 127 ± 19%
Effect on Y1R signal transduction (in words) (human Y1R; 10 μM compound, 1 nM NPY): no effects
Effect on Y2R signal transduction (in words) (human Y2R; 10 μM compound, 1 nM NPY): no effects
Effect on Y5R signal transduction (in words) (human Y5R; 10 μM compound, 1 nM NPY): no effects

O=C(Nc1ccc([N+](=O)[O-])cc1Cl)c1ccncc1 [VU0357475]
Y4R PAM activity, potentiation of a PP EC20 response (in words) (human Y4R): inactive

Nc1ncnc2c1ncn2[C@@H]1O[C@H](CO)[C@@H](O)[C@H]1O [adenosine, reference compound]
IP accumulation following stimulation of Y4R (DMSO set to 100%) (human Y4R): 120 ± 11%
Effect on Y1R signal transduction (in words) (human Y1R; 10 μM compound, 1 nM NPY): slightly decrease
Effect on Y5R signal transduction (in words) (human Y5R; 10 μM compound, 1 nM NPY): slightly decrease

NCCO.O=C(Nc1ccc([N+](=O)[O-])cc1Cl)c1cc(Cl)ccc1O [ethanolamine salt form of Niclosamide]
Efficacy on diabetic symptoms (plasma insulin decline, insulin response, high fat diet induced obesity) [2]: efficacious

pancreatic polypeptide (APLEPVYPGDNATPEQMAQYAADLRRYINMLTRPRY; ends and bridges not checked; UniProt P01298 30-65, looked up) [PP, native peptide ligand of the Y4R]
PP EC20 (Y4R): 0.055 ± 0.027 nM
PP EC80 (Y4R): 0.836 ± 0.033 nM
